Where no end group is shown, it is not given here. [ ]: non-standard residue; d: D form. The star is where a group is joined. FITC = O=C1OC2(c3ccc(O)cc3Oc3cc(O)ccc32)c2ccc(NC(=S)*)cc21; pS = N[C@@H](COP(=O)(O)O)C(=O)O; Ahx = NCCCCCC(=O)O
Key:
[1] = test system: purified recombinant PPTR-2; assay: Fluorescence polarisation, LxxIxE motif-containing FITC-labelled synthetic peptide with purified recombinant PPTR-2; format: binding, C. elegans; conditions: FITC-labelled peptide 0.5–1 µM, increasing PPTR-2 (1:2 serial dilution), FP buffer 50 mM NaP pH 7.5, 150 mM NaCl, 0.5 mM TCEP, 30 min, PheraStar FS, technical triplicates, representative experiment; for PPTR-2 interaction (binding) assessed using fluorescence polarisation: Figure 4C
Experimental: Figure 4. B56α^PPTR-1 and B56γ^PPTR-2 are targeted through a LxxIxE motif in BUB-1. (A) C. elegans BUB-1 LxxIxE SLiM is shown aligned with BubR1 and Repoman short linear motifs (SLiMs). The only change within the LxxIxE sequence itself is the presence of a valine instead of isoleucine, which still fits within the consensus ([Wang et al., 2016]). The alignment was performed using Clustal Omega and visualised with Jalview ([Waterhouse et al., 2009]). (B) Disorder prediction of full-length BUB-1 was done using IUPRED2A ([Erdős and Dosztányi, 2020]). All prevuously characterised BUB-1 domains fall within ordered regions < 0.5. The putative SLiM is in a disordered region (IUPRED score ~0.8). (C) PPTR-2 interaction with a LxxIxE motif-containing synthetic peptide was assessed using fluorescence polarisation. Increasing amounts of purified recombinant PPTR-2 were incubated with FITC-labelled wild-type or L282A,V285A mutant peptide. […] (D) Schematic showing the LxxIxE motif in BUB-1 and the BUB-1^L282A,V285A mutant. […] (F) PPTR-1::GFP levels were measured in wild-type and BUB-1^L282A,V285A oocytes throughout meiosis I and the mean ± s.e.m is shown in the graph. […] (H) Midbivalent/central spindle PPTR-2::GFP levels were measured in wild-type and BUB-1^L282A,V285A oocytes throughout meiosis I, and the mean ± s.e.m is shown in the graph. […] (J) Representative, spindle-wide (20 pixels) line profiles are shown for wild-type (top) and BUB-1^L282A,V285A mutant (bottom) measured in prometaphase I (40 s before metaphase I). […] (K) The angle of bivalents 80 s before segregation in meiosis I relative to the average angle of the spindle was measured in wild-type and in BUB-1^L282A,V285A oocytes. […] N represents number of oocytes and n number of bivalents measured. p value shown in the figure was obtained using a Mann–Whitney test. (L) Distance of bivalents 80 s before segregation in meiosis I relative to the centre of the spindle was measured in wild-type and BUB-1^L282A,V285A oocytes. […]

[2] = test system: phospho Ser 283-specific BUB-1 antibody; assay: Peptide competition of anti-phospho Ser 283 BUB-1 antibody in immunofluorescence; conditions: antibody dilutions 1:1,000 and 1:10,000 incubated with 1 µM and 10 µM peptide; fixed oocytes
Experimental: The antibody was generated by Moravian Biotec by immunising rabbits with the following peptide: RRRHL(pS)PVSEKTC. Serum was adsorbed with a non-phosphorylated peptide (RRRHLSPVSEKTC) followed by affinity purification with the antigenic, phosphorylated peptide. Different fractions were tested in immunofluorescence by incubating different dilutions (1:1,000 and 1:10,000) with 1 µM and 10 µM of either non-phosphorylated or phosphorylated peptide.
Worms were placed on 4 µl of M9 worm buffer in a poly-D-lysine (Sigma, P1024)-coated slide, and a […] coverslip was gently laid on top. Once the worms extruded the embryos, slides were placed on a metal block on dry ice for >10 min. The coverslip was then flicked off with a scalpel blade, and the samples were fixed in methanol at […] for 30 min. After blocking in phosphate-buffered saline (PBS) buffer plus 3% bovine serum albumin and 0.1% Triton X-100 (AbDil), samples were incubated overnight at 4°C with anti-BUB-1 ([Desai et al., 2003]) and anti-tubulin (1/400, clone DM1α, Sigma–Aldrich) in AbDil. After three washes with PBS plus 0.1% Tween, secondary antibodies were added at 1/1000 (goat anti-mouse and goat anti-rabbit conjugated to Alexa Fluor 488, Alexa Fluor 594, Thermo Scientific). […]

Substance	competition of antibody signal in immunofluorescence [2]	PPTR-2 interaction (binding) assessed using fluorescence polarisation [1]	other results
FITC-Ahx-NPRRRHLphSPVSEKTVDDEEE [pBUB-1, FITC-labelled BUB-1 LxxIxE peptide phosphorylated at serine 283]	–	–	relative affinity for recombinant B56γ^PPTR-2, phosphorylated versus non-phosphorylated peptide ([1]; Figure 5F): higher affinity than non-phosphorylated LxxIxE peptide
RRRHLSPVSEKTC	Only the phosphorylated peptide compited out the signal	–	–
RRRHL[pS]PVSEKTC	Only the phosphorylated peptide compited out the signal	–	–
{FITC-Ahx}-NPRRRHASPASEKTVDDEEE [LAVA, FITC-labelled L282A,V285A mutant BUB-1 peptide]	–	this binding is abolished	–
{FITC-Ahx}-NPRRRHLSPVSEKTVDDEEE [BUB-1, FITC-labelled wild-type BUB-1 LxxIxE motif-containing synthetic peptide]	–	binds to purified recombinant PPTR-2	–
